pEC50: −log10 of the molar value. Where a name gives a salt, the structure may show the parent alone.
target: human KV7.2/KV7.3 (Homo sapiens (Human), UniProt O43525+O43526); experiment: Potassium flux assay (IPG-2 AM dye); assay type: cell-based; settings: TREX HEK 293 or HEK 293 cells expressing human KV7.2/KV7.3; arithmetic mean values
From the text: This potassium flux assay employs the cell-permeable, potassium-sensitive dye, IPG-2 AM, to quantify potassium ion flux through potassium channels.
In general, TREX HEK 293 or HEK 293 cells were stably transfected with either an inducible or non-inducible expression vector containing the full-length cDNA coding for the desired human KV7.2/KV7.3 or in combination with another full-length cDNA for a second desired human KV7 potassium channel. Potassium channel-expressing cell lines were induced with tetracycline (1 μg/mL), if required, and plated on 384-well poly-D-lysine (PDL)-coated plates in culture media (DMEM, containing 10% FBS and 1% L-glutamine). After overnight incubation, culture media was removed and cells were loaded with 5 μM IPG-2 AM dye for 1 hour in Assay buffer (140 mM NaCl, 20 mM RbCl, 2 mM CaCl2, 1 mM MgCl2, 10 mM HEPES (4-(2-hydroxyethyl)-1-piperazineethanesulfonic acid buffer), 10 mM glucose, adjusted with Tris to pH 7.4). Excess dye was removed, and cells incubated at room temperature for 20 minutes with or without test compound. A Hamamatsu FDSS μCell was used to perform a 1:1 addition of K challenge buffer (150 mM NaCl, 10 mM HEPES, 2 mM CaCl2, 10 mM KCl, 1 mM MgCl2, 10 mM glucose, adjusted with Tris to pH 7.4 for human KV7.2/KV7.3, and simultaneously read plates at excitation wavelength of 530 nm and emission wavelength of 558 nm. Non-potassium channel-mediated potassium influx was determined in the presence of DMSO, and maximal influx was determined in the presence of a known KV7.x channel modulator. For each test compound, a concentration response curve was generated with 16 concentrations points, 2-fold serial dilution starting at 30 μM and an EC50 value was determined.

pEC50	Compound
> 6.00	FC1(COc2ccc3c(Nc4ccc(Cl)nc4)nccc3c2)COC1 [Example 52, N-(6-chloropyridin-3-yl)-6-((3-fluorooxetan-3-yl)methoxy)isoquinolin-1-amine]
5.00 to 6.00	CC1(CCOc2ccc3c(Nc4ccc(Cl)nc4)nccc3c2)COC1 [Example 98, N-(6-chloropyridin-3-yl)-6-(2-(3-methyloxetan-3-yl)ethoxy)isoquinolin-1-amine]
5.00 to 6.00	CC1(C)CC(COc2ccc3c(Nc4ccc(Cl)nc4)nccc3c2)O1 (centres unmarked) [Example 209, N-(6-chloropyridin-3-yl)-6-((4,4-dimethyloxetan-2-yl)methoxy)isoquinolin-1-amine]
> 6.00	N#CC1(COc2ccc3c(Nc4ccc(Cl)nc4)nccc3c2)CCOC1 (racemic) [Example 124, 3-(((1-((6-chloropyridin-3-yl)amino)isoquinolin-6-yl)oxy)methyl)tetrahydrofuran-3-carbonitrile]
5.00 to 6.00	Clc1ccc(Nc2nccc3cc(OCC4(OCc5ccncc5)CC4)ccc23)cn1 [Example 362, N-(6-chloropyridin-3-yl)-6-((1-(pyridin-4-ylmethoxy)cyclopropyl)methoxy)isoquinolin-1-amine]
5.00 to 6.00	CC1(C)CCC(COc2ccc3c(Nc4ccc(Cl)nc4)nccc3c2)O1 (centres unmarked) [Example 6, N-(6-chloropyridin-3-yl)-6-((5,5-dimethyltetrahydrofuran-2-yl)methoxy)isoquinolin-1-amine]
> 6.00	Clc1ccc(Nc2nccc3cc(OCc4cnsc4)ccc23)cn1 [Example 301, N-(6-chloropyridin-3-yl)-6-(isothiazol-4-ylmethoxy)isoquinolin-1-amine]
5.00 to 6.00	Clc1ccc(Nc2nccc3cc(OCC4CC45CCC5)ccc23)cn1 (centres unmarked) [Example 332, N-(6-chloropyridin-3-yl)-6-(spiro[2.3]hexan-1-ylmethoxy)isoquinolin-1-amine]
> 6.00	COC1(COc2ccc3c(Nc4ccc(Cl)nc4)nccc3c2)CCC1 [Example 288, N-(6-chloropyridin-3-yl)-6-((1-methoxycyclobutyl)methoxy)isoquinolin-1-amine]
> 6.00	Clc1ccc(Nc2nccc3cc(OCC4CC4)ccc23)cn1 [Example 2, N-(6-chloropyridin-3-yl)-6-(cyclopropylmethoxy)isoquinolin-1-amine]
> 6.00	N#CC1(COc2ccc3c(Nc4ccc(Cl)nc4)nccc3c2)CCOC1 (stereo in doubt) [Example 125, (R)-3-(((1-((6-chloropyridin-3-yl)amino)isoquinolin-6-yl)oxy)methyl)tetrahydrofuran-3-carbonitrile]
5.00 to 6.00	C[C@@H](Oc1ccc2c(Nc3ccc(Cl)nc3)nccc2c1)C1(F)CC1 [Example 139, (R)-N-(6-chloropyridin-3-yl)-6-(1-(1-fluorocyclopropyl)ethoxy)isoquinolin-1-amine]
> 6.00	FC(F)(F)C1(COc2ccc3c(Nc4ccc(Cl)nc4)nccc3c2)CC1 [Example 231, N-(6-chloropyridin-3-yl)-6-((1-(trifluoromethyl)cyclopropyl)methoxy)isoquinolin-1-amine formate]

More lines, now with the values behind:

Compound	pEC50
Clc1ccc(Nc2nccc3cc(OC4CCCOC4)ccc23)cn1 (centres unmarked) [Example 216, N-(6-chloropyridin-3-yl)-6-((tetrahydro-2H-pyran-3-yl)oxy)isoquinolin-1-amine]	> 6.00
Clc1ccc(Nc2nccc3cc(OCc4ncccn4)ccc23)cn1 [Example 193, N-(6-chloropyridin-3-yl)-6-(pyrimidin-2-ylmethoxy)isoquinolin-1-amine]	5.00 to 6.00
Clc1ccc(Nc2nccc3cc(N4CCCC4)ccc23)cn1 [Example 421, N-(6-chloropyridin-3-yl)-6-(pyrrolidin-1-yl)isoquinolin-1-amine]	5.00 to 6.00
C[C@H](Oc1ccc2c(Nc3ccc(Cl)nc3)nccc2c1)c1cnn(C)c1 [Example 172, (S)—N-(6-chloropyridin-3-yl)-6-(1-(1-methyl-1H-pyrazol-4-yl)ethoxy)isoquinolin-1-amine]	> 6.00
FC1(COc2ccc3c(Nc4cncnc4)nccc3c2)CC1 [Example 49, 6-((1-fluorocyclopropyl)methoxy)-N-(pyrimidin-5-yl)isoquinolin-1-amine]	5.00 to 6.00
O[C@H]1CC[C@@H](Oc2ccc3c(Nc4ccc(Cl)nc4)nccc3c2)CC1 [Example 100, Cis-4-((1-((6-chloropyridin-3-yl)amino)isoquinolin-6-yl)oxy)cyclohexan-1-ol]	> 6.00
N#CC(F)(COc1ccc2c(Nc3cnc(Cl)nc3)nccc2c1)C1CC1 (centres unmarked) [Example 146, 3-((1-((2-chloropyrimidin-5-yl)amino)isoquinolin-6-yl)oxy)-2-cyclopropyl-2-fluoropropanenitrile]	> 6.00
Clc1ccc(Nc2nccc3cc(OCc4cnoc4)ccc23)cn1 [Example 368, N-(6-chloropyridin-3-yl)-6-(isoxazol-4-ylmethoxy)isoquinolin-1-amine]	> 6.00
COc1ncc(Nc2nccc3cc(OCc4cnn(C)c4)ccc23)cn1 [Example 371, N-(2-methoxypyrimidin-5-yl)-6-((1-methyl-1H-pyrazol-4-yl)methoxy)isoquinolin-1-amine]	> 6.00
CS(=O)(=Nc1ccc2c(Nc3ccc(Cl)nc3)nccc2c1)C1CC1 (stereo in doubt) [Example 273, (R)-((1-((6-chloropyridin-3-yl)amino)isoquinolin-6-yl)imino)(cyclopropyl)(methyl)-λ^6-sulfanone]	5.00 to 6.00
Clc1ccc(Nc2nccc3cc(OCC4CC4)cnc23)cn1 [Example 255, N-(6-chloropyridin-3-yl)-3-(cyclopropylmethoxy)-1,7-naphthyridin-8-amine]	5.00 to 6.00
CC(=O)N1CCC[C@@H](Oc2ccc3c(Nc4ccc(Cl)nc4)nccc3c2)C1 [Example 123, (R)-1-(3-((1-((6-chloropyridin-3-yl)amino)isoquinolin-6-yl)oxy)piperidin-1-yl)ethan-1-one]	> 6.00
CO[C@@H](C)c1ccc2c(Nc3ccc(Cl)nc3)nccc2c1 [Example 133, (S)-N-(6-chloropyridin-3-yl)-6-(1-methoxyethyl)isoquinolin-1-amine]	4.52 to 5.00
Clc1ccc(Nc2nccc3occc23)cn1 [Example 30, N-(6-chloropyridin-3-yl)furo[3,2-c]pyridin-4-amine formate]	5.00 to 6.00
[2H]C([2H])(Oc1ccc2c(Nc3ccc(Cl)nc3)nccc2c1)c1cnn(C)c1 [Example 386, N-(6-chloropyridin-3-yl)-6-((1-methyl-1H-pyrazol-4-yl)methoxy-d2)isoquinolin-1-amine]	> 6.00
Clc1ccc(Nc2nccc3cc(OC4CC5CCC(C4)N5Cc4ccccc4)ccc23)cn1 (centres unmarked) [Example 97, 6-((8-benzyl-8-azabicyclo[3.2.1]octan-3-yl)oxy)-N-(6-chloropyridin-3-yl)isoquinolin-1-amine]	4.52 to 5.00
Cn1cc(COc2cnc3c(Nc4cnc(Cl)nc4)nccc3c2)cn1 [Example 253, N-(2-chloropyrimidin-5-yl)-3-((1-methyl-1H-pyrazol-4-yl)methoxy)-1,7-naphthyridin-8-amine]	> 6.00
Cc1nn(C)cc1C(C)Oc1ccc2c(Nc3ccc(Cl)nc3)nccc2c1 (racemic) [Example 173, N-(6-chloropyridin-3-yl)-6-(1-(1,3-dimethyl-1H-pyrazol-4-yl)ethoxy)isoquinolin-1-amine]	5.00 to 6.00
Cc1ncc(Nc2nccc3cc(N=S(C)(=O)C4CC4)ccc23)cn1 (centres unmarked) [Example 278, cyclopropyl(methyl)((1-((2-methylpyrimidin-5-yl)amino)isoquinolin-6-yl)imino)-λ^6-sulfanone]	5.00 to 6.00
Cc1ncsc1C(=O)N[C@H]1CC[C@@H](Oc2ccc3c(Nc4ccc(Cl)nc4)nccc3c2)CC1 [Example 167, N-((1s,4s)-4-((1-((6-chloropyridin-3-yl)amino)isoquinolin-6-yl)oxy)cyclohexyl)-4-methylthiazole-5-carboxamide]	5.00 to 6.00
Clc1ccc(Nc2nccc3ccsc23)cn1 [Example 12, N-(6-chloropyridin-3-yl)thieno[2,3-c]pyridin-7-amine]	5.00 to 6.00
Cc1ncc(Nc2nccc3cc(OCc4cnn(C)c4)ccc23)cn1 [Example 205, 6-((1-methyl-1H-pyrazol-4-yl)methoxy)-N-(2-methylpyrimidin-5-yl)isoquinolin-1-amine]	> 6.00
Cn1cc(COc2ccc3c(Nc4cnc(Cl)c(O)c4)nccc3c2)cn1 [Example 374, 2-chloro-5-((6-((1-methyl-1H-pyrazol-4-yl)methoxy)isoquinolin-1-yl)amino)pyridin-3-ol]	> 6.00
Cc1ncc(Nc2nccc3cc(O[C@H]4CCC[C@@H](O)C4)ccc23)cn1 [Example 339, (1R,3S)-3-((1-((2-methylpyrimidin-5-yl)amino)isoquinolin-6-yl)oxy)cyclohexan-1-ol]	> 6.00
CS(C)(=O)=Nc1ccc2c(Nc3ccc(Cl)nc3)nccc2c1 [Example 34, ((1-((6-chloropyridin-3-yl)amino)isoquinolin-6-yl)imino)dimethyl-λ^6-sulfanone]	5.00 to 6.00
